The values below come from PubChem BioAssay AID1626 (SRMLSC, 2009).

Each structure is given as a SMILES string.

This assay deals with M. tuberculosis H37Rv growth inhibition. The assay is described as follows: M. tuberculosis H37Rv growth inhibitors, H37Rv strain (AID 1626). As to conditions: for IC90: measured here: IC90 against H37Rv; for CC50: measured here: Vero cell cytotoxicity.

Consider `CCCCOc1ccc(NC(=O)CSc2nnnn2C)cc1`, for which the IC50 is 34 µM and the IC90 was more than 100 µM.

Regarding `Cc1ccc(NC(=O)CNCc2ccccc2)cc1Br`, the IC50 is 32.3 µM and the IC90 is more than 100 µM.

On to `COc1ccc(N=C/C=C2/C=C(c3ccccc3)OC(C)(C)O2)cc1`, for which the IC50 was 63.4 µM and the IC90 is more than 100 µM.

For the molecule `CCCSC1=C(C#N)C(c2cccs2)C(C(=O)Nc2ccccc2)=C(C)N1` (stereo not given), the half-inhibitory concentration (IC50) is 7.77 µM, the IC90 worked out at 68.2 µM and the CC50 was more than 40 µM.

With `CCN(CC)CCOC(=O)c1ccc(N/C=C(/C#N)c2nc(-c3ccc4c(c3)OCO4)cs2)cc1`, the IC50 is 13.5 µM, the concentration for an effect of 90% (IC90) is 22.6 µM and the CC50 worked out at 7.2 µM.

With `CCCCOC(=O)c1ccc(NC(=O)C(=O)NCc2cccnc2)cc1`, the IC50 is 22.1 µM and the IC90 is more than 100 µM.

On to `CCCCc1ccc(NC(=O)C(C)CC)cc1` (stereo not given), for which the IC50 is 6.21 µM and the IC90 is more than 100 µM.

Consider `Clc1ccc(-c2nnc(SCc3nc4ccccc4s3)o2)cc1`, for which the IC50 is 5.3 µM and the IC90 was more than 100 µM.

As for `Cc1cc(Cl)cc(C)c1OCCCCn1ccnc1`, the IC50 is 9.33 µM, the IC90 is 12.7 µM and the CC50 is more than 40 µM.

Regarding `O=[N+]([O-])c1cc(-c2n[nH]c(-c3ccccc3)n2)cc([N+](=O)[O-])c1`, the IC50 was 28.4 µM, the IC90 was more than 100 µM and the CC50 is more than 40 µM.

Consider `CCOC(=O)C1=C(c2ccccc2)NC(N)=NC1c1ccc(OCc2ccc(Cl)cc2)c(OC)c1` (stereo not given), for which the IC50 is 4.55 µM, the IC90 was 5.57 µM and the CC50 stood at 22.6 µM.

With `C=CCOc1ccc(CN(C)Cc2nc3cc(C(F)(F)F)ccc3c(=O)[nH]2)cc1`, the IC50 is 12.4 µM and the IC90 was more than 100 µM.

As to `CC(C)c1ccc(-n2cccc2/C=C2/C(=N)N3C=CSC3=NC2=O)cc1`, the IC50 is 11.9 µM, the IC90 is more than 100 µM and the CC50 was more than 40 µM.

As for `Nc1nc(Nc2cccc(Cl)c2)nc(NCc2ccco2)c1[N+](=O)[O-]`, the IC50 was 29.9 µM, the IC90 is more than 100 µM and the cytotoxic concentration (CC50) was more than 40 µM.

In the case of `CCOC(=O)CNc1ccc(C(=O)OCC)cc1[N+](=O)[O-]`, the IC50 was 3.23 µM and the IC90 is more than 100 µM.

As to `Cc1cc(Oc2ccc(Cl)cc2)nc(-c2ccccn2)n1`, the IC50 is 14.5 µM, the IC90 was more than 100 µM and the CC50 is 21.1 µM.

For `Cc1ccc(-c2nnc(SCC#CCOC(=O)c3ccco3)o2)cc1`, the IC50 was less than 0.391 µM and the IC90 was found to be 3.43 µM.

Turning to `Cc1ccc(NCCC(=O)c2cccs2)cc1Cl`, the IC50 was 34.6 µM and the IC90 is more than 100 µM.

Take `O=C1c2cccc3c([N+](=O)[O-])ccc(c23)C(=O)N1Cc1cccnc1`: the IC50 is 2.02 µM, the IC90 was 3.69 µM and the CC50 turned out to be 6.25 µM.

Consider `CN1CCN(c2ccccc2NC(=O)c2cc3c(s2)-c2ccccc2OC3)CC1`, for which the IC50 was 8.62 µM, the IC90 was 17.7 µM and the CC50 amounted to 10.7 µM.

Consider `CCCCCCc1ccc(OCC(=O)OC)cc1OCC(=O)OC`, for which the IC50 was 1.82 µM and the IC90 stood at 20.1 µM.

For the molecule `Cc1nc2ncccn2c1-c1csc(Nc2ccc(N(C)C)cc2)n1`, the IC50 is 12.8 µM, the concentration for an effect of 90% (IC90) was determined as 16 µM and the CC50 was found to be 3.47 µM.

`O=C(COc1ccc2ccccc2c1)Nc1nccs1` showed a concentration for an effect of 90% (IC90) of more than 100 µM.

On to `O=C(Nc1ccc(C(F)(F)F)cc1)N1CCN(c2ccnc3cc(Cl)ccc23)CC1`, for which the IC50 is 8.62 µM, the IC90 was 15.4 µM and the CC50 stood at 8.22 µM.

Regarding `COc1ccc(N2CCN(c3nc(NC(C)(C)C)nc(N4CCCCC4)n3)CC2)cc1`, the IC50 was 3.75 µM, the IC90 stood at 5.86 µM and the CC50 is more than 40 µM.

For `Cn1c(-c2ccccc2)c(C(=O)CCl)c2ccccc21`, the IC50 is 1.69 µM, the 90% effect concentration (IC90) stood at 4.57 µM and the CC50 was 4.07 µM.
